Measured values published in ChEMBL document CHEMBL5729487, “Small molecule inhibition of transcription factor SALL4 and uses thereof” (2022).

What follows are compounds tested against T1, Sal-like protein 4 (Homo sapiens, UniProt Q9UJQ4) (assay: TBD: TBD).
T1 sequence (Q9UJQ4 whole entry): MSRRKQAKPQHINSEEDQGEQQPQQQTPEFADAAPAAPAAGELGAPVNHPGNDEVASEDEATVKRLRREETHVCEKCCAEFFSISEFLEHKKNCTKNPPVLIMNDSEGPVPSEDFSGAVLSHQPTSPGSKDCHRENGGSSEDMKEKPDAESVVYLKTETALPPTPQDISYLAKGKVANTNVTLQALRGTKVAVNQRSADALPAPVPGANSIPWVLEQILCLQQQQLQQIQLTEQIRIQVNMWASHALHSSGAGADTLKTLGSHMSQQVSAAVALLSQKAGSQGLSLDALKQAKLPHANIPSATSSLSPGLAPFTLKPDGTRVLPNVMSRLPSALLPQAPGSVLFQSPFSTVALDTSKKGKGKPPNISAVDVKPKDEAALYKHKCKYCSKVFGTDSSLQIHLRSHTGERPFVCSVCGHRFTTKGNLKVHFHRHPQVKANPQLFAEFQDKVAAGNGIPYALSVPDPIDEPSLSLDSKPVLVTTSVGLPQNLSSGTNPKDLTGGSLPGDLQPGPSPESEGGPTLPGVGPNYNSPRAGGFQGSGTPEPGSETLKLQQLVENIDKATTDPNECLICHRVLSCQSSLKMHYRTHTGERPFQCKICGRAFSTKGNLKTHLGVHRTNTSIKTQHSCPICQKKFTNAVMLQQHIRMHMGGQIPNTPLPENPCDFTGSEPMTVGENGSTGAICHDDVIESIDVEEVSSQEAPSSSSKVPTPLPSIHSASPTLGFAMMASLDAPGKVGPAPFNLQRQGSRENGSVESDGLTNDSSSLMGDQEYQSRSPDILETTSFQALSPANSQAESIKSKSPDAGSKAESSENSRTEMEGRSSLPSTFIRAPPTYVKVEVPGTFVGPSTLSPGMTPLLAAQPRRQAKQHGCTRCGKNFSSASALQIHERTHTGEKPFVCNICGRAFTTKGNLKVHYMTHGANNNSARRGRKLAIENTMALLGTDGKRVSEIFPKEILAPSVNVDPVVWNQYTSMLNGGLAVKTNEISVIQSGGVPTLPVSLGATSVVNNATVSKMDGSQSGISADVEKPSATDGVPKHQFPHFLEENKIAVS

Going from `CC(C)(C)Nc1c(-c2c(O)ccc3ccccc23)nc2ccccn12` to `CC(C)(C)Nc1c(-c2c(O)ccc3ccccc23)nc2cnccn12`, the IC50 rises from 162 nM to 783 nM (4.8-fold).

`COc1ccc(Nc2c(-c3c(O)ccc4ccccc34)nc3cnccn23)cc1` and `N#Cc1ccc(Nc2c(-c3c(O)ccc4ccccc34)nc3cnccn23)cc1` are within 1.5-fold of each other in IC50: 619 nM for the first, 498 nM for the second.

Compared with `Oc1ccc2ccccc2c1-c1nc2ccccn2c1NC1CC1`, `Oc1ccc2ccccc2c1-c1nc2ccccn2c1NC1CCCCC1` is 25-fold higher in IC50: 109 nM for the first, 2770 nM for the second.

Compared with `COC(=O)c1cccc(Nc2c(-c3c(O)ccc4ccccc34)nc3cnccn23)c1`, `COc1cccc(CNc2c(-c3c(O)ccc4ccccc34)nc3cnccn23)c1` is 2.2-fold lower in IC50: 623 nM for the first, 288 nM for the second. The second is the more potent here.

Going from `Oc1ccc2ccccc2c1-c1nc2ccccn2c1NCc1ccccc1` to `Oc1ccc2ccccc2c1-c1nc2cnccn2c1NCc1ccccc1`, the IC50 falls from 1510 nM to 594 nM (2.5-fold).

First: Oc1ccc2ccccc2c1-c1nc2cnccn2c1NC1CC1
Second: Oc1ccc2ccccc2c1-c1nc2cnccn2c1NC1CCCCC1
The IC50 of the first is 1.8-fold lower: 335 nM for the first, 616 nM for the second. The first is the more potent here.

First: Oc1ccc2ccccc2c1-c1nc2cnccn2c1NCCN1CCOCC1
Second: Oc1ccc2ccccc2c1-c1nc2ccccn2c1NCCN1CCOCC1
The IC50 of the first is 1.6-fold lower: 1360 nM for the first, 2230 nM for the second.

Going from `COCCNc1c(-c2c(O)ccc3ccccc23)nc2cnccn12` to `COc1ccc(CCNc2c(-c3c(O)ccc4ccccc34)nc3cnccn23)cc1OC`, the IC50 rises from 434 nM to 2490 nM (5.7-fold). The first is the more potent here.
